Reference: US8937089B2, “Synergistic mixtures of anthranilamide invertebrate pest control agents” (priority 2004, dated 2015)

How the values were obtained:
Test in all cases: whole plant or invertebrate
Type in all cases: in vivo
[1] = test system: silverleaf whitefly (Bemisia argentifolii Bellows and Perring); settings: Table 2B; for mortality at 10 ppm: rate 10 ppm
Excerpt: For evaluating control of silverleaf whitefly (Bemisia argentifolii Bellows and Perring) through contact and/or systemic means, each test unit consisted of a small open container with a 12- to 14-day-old cotton plant inside. This was pre-infested by placing test units into cages infested with adult whiteflies so that oviposition on the cotton leaves could occur. The adults were removed from the plants with an air-blast nozzle, and the test units were capped. The test units were then stored 2 to 3 days before spraying.
(§1) Test compounds were formulated using a solution containing 10% acetone, 90% water and 300 ppm X-77® Spreader Lo-Foam Formula non-ionic surfactant containing alkylarylpolyoxyethylene, free fatty acids, glycols and 2-propanol (Loveland Industries, Inc.) to provide the desired concentration in ppm. Formulated test solutions were then applied in 1 mL volumes through a SUJ2 atomizer nozzle with 1/8 JJ custom body (Spraying Systems Co.) positioned 1.27 cm (0.5 inches) above the top of each test unit.
The results for all experimental compositions in this test were replicated three times. After spraying of the formulated test composition, each test unit was allowed to dry for 1 hour and the cap removed. The test units were held for 13 days in a growth chamber at 28° C. and 50-70% relative humidity.

[2] = test system: western flower thrip (Frankliniella occidentalis Pergande); settings: single compound, spray, 7 days; for mortality at 10 ppm: rate 10 ppm
Protocol: as §1
For evaluating control of the western flower thrip (Frankliniella occidentalis Pergande) through contact and/or systemic means, each test unit consisted of a small open container with a 5- to 7-day-old bean (var. Soleil) plant inside.
Test solutions were formulated and sprayed with 3 replications as described for Test A. After spraying, the test units were allowed to dry for 1 hour, 22 to 27 adult thrips were added to each unit and then a black, screened cap was placed on top. The test units were held for 7 days at 25° C. and 45-55% relative humidity.

[3] = test system: potato leafhopper (Empoasca fabae Harris); settings: alone
Protocol: as §1
[…] White sand was added to the top of the soil, and one of the primary leaves was excised prior to application. Test compounds were formulated and sprayed with 3 replications as described for Test A. After spraying, the test units were allowed to dry for 1 hour before they were infested with 5 potato leafhoppers (18- to 21-day-old adults). A black, screened cap was placed on the top of each container. The test units were held for 6 days in a growth chamber at 19-21° C. and 50-70% relative humidity.

[4] = test system: corn planthopper (Peregrines maidis); settings: Corn Plant Hopper
Protocol: as §1
For evaluating control of corn planthopper (Peregrines maidis) through contact and/or systemic means, each test unit consisted of a small open cylindrical container with a 3- to 4-day-old corn (maize) plant (spike) inside. White sand was added to the top of the soil prior to application. Test compounds were formulated and sprayed with 3 replications as described for Test A. After spraying, the test units were allowed to dry for 1 hour before they were post-infested with 10 to 20 corn planthoppers (18- to 20-day-old nymphs) by sprinkling them onto the sand with a salt shaker. A black, screened cap was placed on the top of each container. The test units were held for 6 days in a growth chamber at 19-21° C. and 50-70% relative humidity.

[5] = test system: cotton melon aphid (Aphis gossypii Glover); settings: for mortality at 1000 ppm: rate 1000 ppm
Protocol: as §1
(§2) For evaluating control of cotton melon aphid (Aphis gossypii Glover) through contact and/or systemic means, each test unit consisted of a small open container with a 6- to 7-day-old cotton plant inside. This was pre-infested by placing on a leaf of the test plant 30 to 40 aphids on a piece of leaf excised from a culture plant (cut-leaf method). The larvae moved onto the test plant as the leaf piece desiccated. After pre-infestation, the soil of the test unit was covered with a layer of sand.
(§3) Test compounds were formulated and sprayed as described for Test A. The applications were replicated three times. After spraying of the formulated test compounds, each test unit was allowed to dry for 1 hour and then a black, screened cap was placed on top. The test units were held for 6 days in a growth chamber at 19-21° C. and 50-70% relative humidity.

[6] = test system: green peach aphid (Myzus persicae Sulzer); settings: Green Peach Aphid; for mortality at 1000 ppm: rate 1000 ppm
Protocol: as §1
as §2, with “green peach” for “cotton melon”, “(Myzus persicae Sulzer)” for “(Aphis gossypii Glover)”, “12-” for “6-”, “15-day-old radish” for “7-day-old cotton”
as §3, with “described in” for “described for”, “Test A,” for “Test A. The applications were”, “test compound,” for “test compounds,”

[7] = Bemisia argentifolii, in Gossypium hirsutum, read-out: % mortality (obs)
[8] = Bemisia argentifolii, in Gossypium hirsutum, rate 100 ppm, read-out: % mortality (obs)
[9] = Bemisia argentifolii, in Gossypium hirsutum, rate 1000 ppm, read-out: % mortality (obs)
[10] = Frankliniella occidentalis, 168 h, read-out: % mortality (obs)
[11] = Frankliniella occidentalis, 168 h, rate 500 ppm, read-out: % mortality (obs)
[12] = Frankliniella occidentalis, 168 h, rate 1000 ppm, read-out: % mortality (obs)
[13] = Empoasca fabae, rate 1 ppm, read-out: % mortality (obs)
[14] = Aphis gossypii, read-out: % mortality (obs)
[15] = Myzus persicae, in Raphanus sativus, read-out: % mortality (obs)

`CS/C(C)=N\OC(=O)N(C)SN(C)C(=O)O/N=C(\C)SC` [Thiodicarb] was tested, and the “% mortality (obs)” value ([1]; rate 100 ppm) was 1%, the “% mortality (obs)” value ([1]; rate 1000 ppm) was 0% and the “% mortality (obs)” value ([1]; rate 3000 ppm) was 6%. For the same compound, the “% mortality (obs)” value ([2]; rate 20 ppm) was 60%, the “% mortality (obs)” value ([2]; rate 200 ppm) was 80% and the “% mortality (obs)” value ([3]; rate 0.08 ppm) was 0%. The “% mortality (obs)” value ([3]; rate 0.16 ppm) was 20%, the “% mortality (obs)” value ([3]; rate 0.4 ppm) was 20% and the “% mortality (obs)” value ([4]; rate 0.08 ppm) was 2%. For the same compound, the “% mortality (obs)” value ([4]; rate 0.16 ppm) was 6%, the “% mortality (obs)” value ([4]; rate 0.4 ppm) was 7% and the “% mortality (obs)” value ([5]; rate 3 ppm) was 49%. For the same compound, the “% mortality (obs)” value ([5]; rate 10 ppm) was 32%, the “% mortality (obs)” value ([5]; rate 30 ppm) was 69% and the “% mortality (obs)” value ([6]; rate 20 ppm) was 10%. For the same compound, the “% mortality (obs)” value ([6]; rate 150 ppm) was 17% and the “% mortality (obs)” value ([6]; rate 900 ppm) was 98%.

Work on `CC1(C)CNC(=NN=C(/C=C/c2ccc(C(F)(F)F)cc2)/C=C/c2ccc(C(F)(F)F)cc2)NC1` [Hydramethylnon] yielded a mortality at 10 ppm [1, 7] of 2%, a mortality at 100 ppm [1, 8] of 1% and a mortality at 1000 ppm [1, 9] of 0%. The mortality at 10 ppm [2, 10] was 60%, the mortality at 500 ppm [2, 11] was 50% and the mortality at 1000 ppm [2, 12] was 40%. For the same compound, the mortality at 0.01 ppm ([3]; Empoasca fabae, rate 0.01 ppm, read-out: % mortality (obs)) was 0%, the mortality at 1 ppm [3, 13] was 27% and the mortality at 2 ppm ([3]; Empoasca fabae, rate 2 ppm, read-out: % mortality (obs)) was 60%. The mortality at 0.01 ppm ([4]; rate 0.01 ppm, read-out: % mortality (obs)) was 7%, the mortality at 1 ppm ([4]; rate 1 ppm, read-out: % mortality (obs)) was 1% and the mortality at 2 ppm ([4]; rate 2 ppm, read-out: % mortality (obs)) was 6%. It also gave a mortality at 500 ppm ([5]; Aphis gossypii, rate 500 ppm, read-out: % mortality (obs)) of 21%, a mortality at 1000 ppm [5, 14] of 40% and a mortality at 1500 ppm ([5]; Aphis gossypii, rate 1500 ppm, read-out: % mortality (obs)) of 39%. For the same compound, the mortality at 500 ppm ([6]; Myzus persicae, in Raphanus sativus, rate 500 ppm, read-out: % mortality (obs)) was 18%, the mortality at 1000 ppm [6, 15] was 8% and the mortality at 1500 ppm ([6]; Myzus persicae, in Raphanus sativus, rate 1500 ppm, read-out: % mortality (obs)) was 7%.

In the case of `CCN(Cc1ccc(Cl)nc1)/C(=C/[N+](=O)[O-])NC` [Nitenpyram], the “% mortality (obs)” value ([1]; rate 20 ppm) is reported as 53%, the “% mortality (obs)” value ([1]; rate 30 ppm) is reported as 84% and the “% mortality (obs)” value ([1]; rate 40 ppm) is reported as 85%. The “% mortality (obs)” value ([2]; rate 5 ppm) was 20%, the “% mortality (obs)” value ([2]; rate 50 ppm) was 50% and the “% mortality (obs)” value ([2]; rate 500 ppm) was 80%. The “% mortality (obs)” value ([3]; rate 0.3 ppm) was 7%, the “% mortality (obs)” value ([3]; rate 0.4 ppm) was 73% and the “% mortality (obs)” value ([3]; rate 0.5 ppm) was 33%. The “% mortality (obs)” value ([4]; rate 0.1 ppm) was 27%, the “% mortality (obs)” value ([4]; rate 0.2 ppm) was 100% and the “% mortality (obs)” value ([4]; rate 0.3 ppm) was 100%. For the same compound, the “% mortality (obs)” value ([5]; rate 0.2 ppm) was 29%, the “% mortality (obs)” value ([5]; rate 0.4 ppm) was 49% and the “% mortality (obs)” value ([5]; rate 0.6 ppm) was 71%. For the same compound, the “% mortality (obs)” value ([6]; rate 0.2 ppm) was 7%, the “% mortality (obs)” value ([6]; rate 0.4 ppm) was 17% and the “% mortality (obs)” value ([6]; rate 0.6 ppm) was 40%.

In the case of `CC1(C)[C@H](C(=O)O[C@H](C#N)c2cccc(Oc3ccccc3)c2)[C@@H]1C=C(Br)Br` [Deltamethrin], the mortality at 30 ppm ([1]; Bemisia argentifolii, in Gossypium hirsutum, rate 30 ppm, read-out: % mortality (obs)) is reported as 2%, the mortality at 40 ppm ([1]; Bemisia argentifolii, in Gossypium hirsutum, rate 40 ppm, read-out: % mortality (obs)) is reported as 0% and the mortality at 50 ppm ([1]; Bemisia argentifolii, in Gossypium hirsutum, rate 50 ppm, read-out: % mortality (obs)) is reported as 1%. For the same compound, the mortality at 10 ppm [2, 10] was 70%, the mortality at 1000 ppm [2, 12] was 70% and the mortality at 3000 ppm ([2]; Frankliniella occidentalis, 168 h, rate 3000 ppm, read-out: % mortality (obs)) was 50%. For the same compound, the mortality at 0.1 ppm ([3]; Empoasca fabae, rate 0.1 ppm, read-out: % mortality (obs)) was 7%, the mortality at 0.2 ppm ([3]; Empoasca fabae, rate 0.2 ppm, read-out: % mortality (obs)) was 7% and the mortality at 1 ppm [3, 13] was 60%. The mortality at 0.1 ppm ([4]; rate 0.1 ppm, read-out: % mortality (obs)) was 11%, the mortality at 0.2 ppm ([4]; rate 0.2 ppm, read-out: % mortality (obs)) was 14% and the mortality at 0.3 ppm ([4]; rate 0.3 ppm, read-out: % mortality (obs)) was 7%. The mortality at 0.1 ppm ([5]; Aphis gossypii, rate 0.1 ppm, read-out: % mortality (obs)) was 52%, the mortality at 0.2 ppm ([5]; Aphis gossypii, rate 0.2 ppm, read-out: % mortality (obs)) was 39% and the mortality at 0.3 ppm ([5]; Aphis gossypii, rate 0.3 ppm, read-out: % mortality (obs)) was 88%. For the same compound, the mortality at 250 ppm ([6]; Myzus persicae, in Raphanus sativus, rate 250 ppm, read-out: % mortality (obs)) was 9%, the mortality at 300 ppm ([6]; Myzus persicae, in Raphanus sativus, rate 300 ppm, read-out: % mortality (obs)) was 3% and the mortality at 1000 ppm [6, 15] was 9%.

With Cartap the “% mortality (obs)” value ([1]; rate 0.1 ppm) was 0%, the “% mortality (obs)” value ([1]; rate 0.2 ppm) was 0% and the “% mortality (obs)” value ([1]; rate 0.5 ppm) was 0%. The “% mortality (obs)” value ([2]; rate 1 ppm) was 40%, the “% mortality (obs)” value ([2]; rate 1000 ppm) was 100% and the “% mortality (obs)” value ([2]; rate 3000 ppm) was 100%. For the same compound, the “% mortality (obs)” value ([3]; rate 0.1 ppm) was 20%, the “% mortality (obs)” value ([3]; rate 1 ppm) was 73% and the “% mortality (obs)” value ([3]; rate 10 ppm) was 100%. The “% mortality (obs)” value ([4]; rate 0.3 ppm) was 100%, the “% mortality (obs)” value ([4]; rate 3 ppm) was 100% and the “% mortality (obs)” value ([4]; rate 30 ppm) was 100%. The “% mortality (obs)” value ([5]; rate 0.2 ppm) was 29%, the “% mortality (obs)” value ([5]; rate 2 ppm) was 34% and the “% mortality (obs)” value ([5]; rate 200 ppm) was 83%. The “% mortality (obs)” value ([6]; rate 0.2 ppm) was 11%, the “% mortality (obs)” value ([6]; rate 0.4 ppm) was 26% and the “% mortality (obs)” value ([6]; rate 0.6 ppm) was 17%.

In the case of `Nc1nc(N)nc(NC2CC2)n1` [Cyromazine], the mortality at 10 ppm [1, 7] is reported as 1%, the mortality at 100 ppm [1, 8] is reported as 2% and the mortality at 1000 ppm [1, 9] is reported as 2%. For the same compound, the mortality at 200 ppm ([2]; Frankliniella occidentalis, 168 h, rate 200 ppm, read-out: % mortality (obs)) was 70%, the mortality at 500 ppm [2, 11] was 80% and the mortality at 1000 ppm [2, 12] was 70%. For the same compound, the mortality at 10 ppm ([3]; Empoasca fabae, rate 10 ppm, read-out: % mortality (obs)) was 7%, the mortality at 100 ppm ([3]; Empoasca fabae, rate 100 ppm, read-out: % mortality (obs)) was 0% and the mortality at 1000 ppm ([3]; Empoasca fabae, rate 1000 ppm, read-out: % mortality (obs)) was 0%. It also gave a mortality at 200 ppm ([4]; rate 200 ppm, read-out: % mortality (obs)) of 4%, a mortality at 500 ppm ([4]; rate 500 ppm, read-out: % mortality (obs)) of 8% and a mortality at 1000 ppm ([4]; rate 1000 ppm, read-out: % mortality (obs)) of 8%. For the same compound, the mortality at 10 ppm ([5]; Aphis gossypii, rate 10 ppm, read-out: % mortality (obs)) was 23%, the mortality at 100 ppm ([5]; Aphis gossypii, rate 100 ppm, read-out: % mortality (obs)) was 34% and the mortality at 1000 ppm [5, 14] was 28%. For the same compound, the mortality at 10 ppm ([6]; Myzus persicae, in Raphanus sativus, rate 10 ppm, read-out: % mortality (obs)) was 24%, the mortality at 100 ppm ([6]; Myzus persicae, in Raphanus sativus, rate 100 ppm, read-out: % mortality (obs)) was 33% and the mortality at 1000 ppm [6, 15] was 65%.
